In brackets after ≈: the same amount, converted by molar mass. Read-outs that look alike come from different tables or passages of the source.
Experiments:
[1] = test system: E. coli RNase P RNA, M1 RNA; test: Initial inhibition of RNase P activity (normalised cleavage of pATSerUG at maximum compound concentration); assay type: biochemical; settings: normalised cleavage (cleavage with compound / without compound)
[2] = test system: E. coli RNase P RNA, M1 RNA; test: Inhibition of bacterial RNase P activity, IC50 determination (cleavage of pATSerUG by M1 RNA); assay type: biochemical; settings: NI = No inhibition
[3] = test system: Escherichia coli (ATCC25922); test: MIC, broth microdilution (CLSI), Escherichia coli ATCC25922
[4] = test system: Staphylococcus aureus (ATCC25923); test: MIC, broth microdilution (CLSI), Staphylococcus aureus ATCC25923; settings: ATCC25923, read-out: S. aureus ("Clinical") MIC
S. pneumoniae ATCC 49619 = test: MIC, S. pneumoniae ATCC 49619; assay type: cell-based; settings: Streptococcus pneumoniae, ATCC49619
M. phlei ATCC 11758 = test: MIC, M. phlei ATCC 11758; assay type: cell-based; settings: Mycolicibacterium phlei, ATCC11758
[5] = test system: S. aureus MRSA ATCC 33591; test: MIC, S. aureus MRSA ATCC 33591; assay type: cell-based; settings: Staphylococcus aureus; read-out: MIC S. aureus MRSA ATCC 33591
E. faecium ATCC 700221 = test: MIC, E. faecium ATCC 700221; assay type: cell-based; settings: Enterococcus faecium, ATCC700221; read-out: MIC E. faecium ATCC 700221
H. pylori ATCC 43504 = test: MIC, H. pylori ATCC 43504; assay type: cell-based; settings: Helicobacter pylori, ATCC43504
E. coli JW5503 = test: MIC, E. coli JW5503; assay type: cell-based; settings: Escherichia coli, JW5503, read-out: MIC E. coli JW5503
[6] = test system: Staphylococcus aureus subsp. aureus (ATCC29213); test: MIC, broth microdilution (CLSI), Staphylococcus aureus subsp. aureus ATCC29213; assay type: cell-based
K. pneumoniae ATCC 43816 = test: MIC, K. pneumoniae ATCC 43816; assay type: cell-based; settings: Klebsiella pneumoniae, ATCC43816
[7] = test system: P. aeruginosa NTUH-974 (MDR); test: MIC, P. aeruginosa NTUH-974 (MDR); assay type: cell-based; settings: Pseudomonas aeruginosa; read-out: MIC P. aeruginosa NTUH-974 (MDR)
[8] = test system: Pseudomonas aeruginosa (ATCC27853); test: microbe, parasite or virus in culture; assay type: cell-based; settings: read-out: MIC P. aeruginosa ATCC 27853
N. gonorrhoeae 612501 = test: MIC, N. gonorrhoeae 612501; assay type: cell-based; settings: Neisseria gonorrhoeae
[9] = test system: Enterococcus faecalis (ATCC29212); test: MIC, broth microdilution (CLSI), Enterococcus faecalis ATCC29212; assay type: cell-based; settings: read-out: MIC E. faecalis ATCC 29212
A. baumannii ATCC 17978 = test: MIC, A. baumannii ATCC 17978; assay type: cell-based; settings: Acinetobacter baumannii, ATCC17978
H. influenzae ATCC 49247 = test: MIC, H. influenzae ATCC 49247; assay type: cell-based; settings: Haemophilus influenzae, ATCC49247
S. aureus ATCC 29213 = test: MIC, S. aureus ATCC 29213 + 50% HS; assay type: cell-based; settings: Staphylococcus aureus, ATCC29213
[10] = test system: S. aureus USA300 MRSA BAA 1717; test: MIC, S. aureus USA300 MRSA BAA 1717; assay type: cell-based; settings: Staphylococcus aureus
M. fortuitum ATCC 110 = test: MIC, M. fortuitum ATCC 110; assay type: cell-based; settings: Mycolicibacterium fortuitum, ATCC110
[11] = ATCC25922, read-out: E. coli MIC, Table 15, NI = No inhibition
[12] = ATCC29213, Table 15, read-out: S. aureus ("wound") (MIC)
[13] = ATCC29213, Table 16, read-out: MIC S. aureus ATCC 29213
[14] = ATCC25922, read-out: MIC E. coli ATCC 25922, Table 16

| SMILES | Normalised RNase P cleavage (fraction of control) ([1]; at 8 μM) | IC50 [2] [µM] | MIC [3, 11] [µg/mL] | MIC [4] [µg/mL] | MIC (S. pneumoniae ATCC 49619) [µg/mL] | MIC (M. phlei ATCC 11758) [µg/mL] | MIC [5] [µg/mL] | MIC (E. faecium ATCC 700221) [µg/mL] | MIC (H. pylori ATCC 43504) [µg/mL] | MIC (E. coli JW5503) [µg/mL] | MIC [6, 12] [µg/mL] | MIC [6, 13] [µg/mL] | MIC (K. pneumoniae ATCC 43816) [µg/mL] | MIC [7] [µg/mL] | MIC [8] [µg/mL] | MIC (N. gonorrhoeae 612501) [µg/mL] | MIC [9] [µg/mL] | MIC (A. baumannii ATCC 17978) [µg/mL] | MIC (H. influenzae ATCC 49247) [µg/mL] | MIC (S. aureus ATCC 29213) [µg/mL] | further results |
| --- | --- | --- | --- | --- | --- | --- | --- | --- | --- | --- | --- | --- | --- | --- | --- | --- | --- | --- | --- | --- | --- |
| NCCC(=O)Nc1cc(C(F)(F)F)cc2c1Nc1ccccc1S2 [compound 30, 3-amino-N-(3-(trifluoromethyl)-10H-phenothiazin-1-yl)propanamide] | 0.49 | > 100 | 16 (≈ 45.3 µM) | 8 (≈ 22.6 µM) | – | – | – | – | – | – | – | – | – | – | – | – | – | – | – | – | – |
| CC1(C)CCCN(c2ccc3c(c2)Sc2cc(C(F)(F)F)cc(NC4CCN(CCN)CC4)c2N3)C1.Cl.Cl [compound 305, N-(1-(2-aminoethyl)piperidin-4-yl)-7-(3,3-dimethyl-piperidin-1-yl)-3-(trifluoromethyl)-10H-phenothiazin-1-amine hydrochloride] | – | 2.9 | 4 | – | 2 | 2 | 1 | 1 | 16 | 4 | 2 | 1 | 4 | 16 | 16 | 1 | 1 | 4 | 1 | 32 | MIC [3, 14]: 4 µg/mL; MIC [10]: 1 µg/mL; MIC (M. fortuitum ATCC 110): 4 µg/mL |
| C[C@@H](N)CC(=O)Nc1cc(C(F)(F)F)cc2c1Nc1ccccc1S2 [compound 67, (R)-3-amino-N-(3-(trifluoromethyl)-10H-phenothiazin-1-yl)butanamide] | 0.19 | > 100 | 13 (≈ 35.4 µM) | 13 (≈ 35.4 µM) | – | – | – | – | – | – | – | – | – | – | – | – | – | – | – | – | – |
| Cl.NC1CCCC(CNc2cc(C(F)(F)F)cc3c2Nc2ccc(N4CCCC4)cc2S3)C1 (stereo not shown) [compound 300, N-((3-aminocyclohexyl)methyl)-7-(pyrrolidin-1-yl)-3-(trifluoromethyl)-10H-phenothiazin-1-amine] | – | 1.9 | 16 | – | 4 | 4 | 1 | 1 | 16 | 2 | 1 | 1 | 8 | > 32 | > 32 | 1 | 1 | 8 | 2 | 16 | MIC [3, 14]: 4 µg/mL; MIC [10]: 1 µg/mL; MIC (M. fortuitum ATCC 110): 2 µg/mL |
| Nc1cc(C(F)(F)F)cc2c1Nc1ccccc1S2 [compound 2, 3-(trifluoromethyl)-10H-phenothiazin-1-amine] | 0.42 | – | > 100 | 4 (≈ 14.2 µM) | – | – | – | – | – | – | – | – | – | – | – | – | – | – | – | – | Normalised RNase P cleavage (fraction of control) ([1]; at 10 μM): 0.84 |
| C=CC(=O)N(CCCN(C)C)c1cc(C(F)(F)F)cc2c1Nc1ccccc1S2 [compound 39, N-(3-(dimethylamino)propyl)-N-(3-(trifluoromethyl)-10H-phenothiazin-1-yl)acrylamide] | 0.58 | 76 | > 100 | 27 (≈ 64.1 µM) | – | – | – | – | – | – | – | – | – | – | – | – | – | – | – | – | – |
| CCN(CC)c1ccc2c(c1)Sc1cc(C(F)(F)F)cc(NC3CCN(CCN)CC3)c1N2.Cl.Cl.Cl [compound 306, N1-(1-(2-aminoethyl)piperidin-4-yl)-N7,N7-diethyl-3-(trifluoromethyl)-10H-phenothiazine-1,7-diamine hydrochloride] | – | 50 | 4 | – | 4 | 8 | 2 | 2 | 32 | 2 | 2 | 2 | 4 | 32 | 32 | 2 | 4 | 8 | 8 | 8 | MIC [3, 14]: 4 µg/mL; MIC [10]: 2 µg/mL; MIC (M. fortuitum ATCC 110): 4 µg/mL |
| Cl.Cl.NCCN1CCC(Nc2cc(C(F)(F)F)cc3c2Nc2ccc(N4CCCC4)cc2S3)CC1 [compound 284, N-(1-(2-aminoethyl)piperidin-4-yl)-7-(pyrrolidin-1-yl)-3-(trifluoromethyl)-10H-phenothiazin-1-amine hydrochloride] | – | 0.89 | 8 | – | 8 | 4 | 2 | 2 | 32 | 4 | 2 | 2 | 4 | 32 | 32 | 2 | 2 | 8 | 8 | 32 | MIC [3, 14]: 4 µg/mL; MIC [10]: 2 µg/mL; MIC (M. fortuitum ATCC 110): 8 µg/mL |
| CN(C)CCCN1c2ccccc2Sc2cc(C(F)(F)F)cc(N)c21 [compound 42, 10-(3-(dimethylamino)propyl)-3-(trifluoromethyl)-10H-phenothiazin-1-amine] | 1.02 | – | > 100 | 47 (≈ 128 µM) | – | – | – | – | – | – | – | – | – | – | – | – | – | – | – | – | – |
| CC1CCCN(c2ccc3c(c2)Sc2cc(C(F)(F)F)cc(NC4CCN(CCN)CC4)c2N3)C1.Cl.Cl (stereo not shown) [compound 301, N-(1-(2-aminoethyl)piperidin-4-yl)-7-(3-methyl-piperidin-1-yl)-3-(trifluoromethyl)-10H-phenothiazin-1-amine hydrochloride] | – | 27 | 4 | – | 4 | 8 | 2 | 2 | 8 | 2 | 2 | 4 | 4 | 16 | 16 | 1 | 2 | 4 | 2 | 16 | MIC [3, 14]: 4 µg/mL; MIC [10]: 2 µg/mL; MIC (M. fortuitum ATCC 110): 4 µg/mL |
